Experiment: Ex vivo biodistribution
Type: in vivo, wild-type FVB/NJ mice
Procedure: To further understand the pharmacokinetics of [^18F]2, ex vivo biodistribution was performed with different groups of mice with and without co-administration of 2. Animals were sacrificed at 5 min, 10 min and 120 min post-injection of [^18F]2. Vital organs and tissues were collected and uptake of the [^18F]2 was measured as SUV after counting the radioactivity in each harvested tissue. […] Additionally, observed higher uptake of [^18F]2 in pancreas could potentially be extended to beta cell mass imaging as a separate study. […] Therefore, it would be valuable to evaluate PET [^18F]2 in pathological conditions to finally evaluate its selectivity, binding affinity, and retention in vivo in the presence and absence of self-blocking as a future study.
Uptake of PET probe [^18F]2 (1.40 ± 0.61 MBq) was assessed with and without co-administration of 2 in 10–13-week-old wild-type FVB/NJ mice (The Jackson Laboratory, Bar Harbor, ME) after tail vein injection followed by PET imaging at 5 min, 10 min, 15 min, 20 min, 25 min, 30 min, 40 min, 50 min, 60 min and 120 min post injection. Additionally, ex vivo biodistribution was performed at 5 min, 10 min and 120 min post tail vein injection. To prepare [^18F]2 formulation for injection, 0.76 ± 0.48 µg (2.01 ± 1.27 nmol) of [^18F]2 was formulated in 10% ethanol/ 90% isotonic saline. For the blocking experiment, 20.21 ± 1.63 µg (53.75 ± 4.33 nmol) of 2 in DMSO was added to [^18F]2 (Am of 87.27 ± 77.26 (n = 13) GBq/µmole, having 0.46 ± 0.31 µg or 1.23 ± 0.83 nmol of nonradioactive 2 in it) in the final formulation volume of ~ 100 µL. This study had 12 wild type FVB/NJ male mice with body weight 31.8 ± 2.7 g and 10 wild type FVB/NJ female mice with body weight 27.0 ± 3.6 g at the time of imaging. All the animals were anesthetized for tail vein injection and PET imaging using an induction dose of 3% isoflurane and a maintenance dose of 2–3% isoflurane, which was administered via isoflurane vaporizer. All anesthetized animals were kept warm during imaging using a heat supported imaging chamber. For ex vivo biodistribution studies, animals were sacrificed at 5 min, 10 min and 120 min post-injection by cervical dislocation and tissues were harvested for gamma counting. For PET imaging studies, each animal underwent a 60 min dynamic PET scan (Framing Sequence: 1 × 10 s, 4 × 15 s, 8 × 30 s, 5 × 60 s, 4 × 300 s, 3 × 600 s) immediately post injection followed by 10 min static PET scan at 120 min post-injection on small animal micro-PET/X-ray system, Genesys 4 (Sofie BioSystems, Dulles, VA, USA). The PET images were reconstructed using Genesys 4 imaging software installed on the imaging system. The obtained PET images were visualized and analyzed using image analysis software, “Amide's a medical image data examiner-AMIDE”[53]. PET images were normalized to the standardized uptake value (SUV) where; SUV=ConcentrationofdoseintissueμCi/g×Weightoftheanimal(g)/Injecteddose(μCi).

O=C(Nc1cnccc1-c1ccc([18F])cc1)c1ccnc(NC(=O)C2CC2)c1 [[^18F]2]
SUV, Average ± SD (Adipose, 5 min post-injection, [^18F]2 + 20 µg of 2): 0.33 ± 0.05 | SUV, Average ± SD (Adipose, 5 min post-injection, [^18F]2 alone): 0.29 ± 0.09 | SUV, Average ± SD (Adipose, 10 min post-injection, [^18F]2 + 20 µg of 2): 0.38 ± 0.05 | SUV, Average ± SD (Adipose, 10 min post-injection, [^18F]2 alone): 0.24 ± 0.07 | SUV, Average ± SD (Adipose, 120 min post-injection, [^18F]2 + 20 µg of 2): 0.25 ± 0.05 | SUV, Average ± SD (Adipose, 120 min post-injection, [^18F]2 alone): 0.14 ± 0.04 | SUV, Average ± SD (Bladder, 5 min post-injection, [^18F]2 + 20 µg of 2): 0.71 ± 0.09 | SUV, Average ± SD (Bladder, 5 min post-injection, [^18F]2 alone): 0.40 ± 0.12 | SUV, Average ± SD (Bladder, 10 min post-injection, [^18F]2 + 20 µg of 2): 0.84 ± 0.13 | SUV, Average ± SD (Bladder, 10 min post-injection, [^18F]2 alone): 0.48 ± 0.08 | SUV, Average ± SD (Bladder, 120 min post-injection, [^18F]2 + 20 µg of 2): 0.73 ± 0.54 | SUV, Average ± SD (Bladder, 120 min post-injection, [^18F]2 alone): 1.58 ± 1.90 | SUV, Average ± SD (Blood, 5 min post-injection, [^18F]2 + 20 µg of 2): 0.93 ± 0.14 | SUV, Average ± SD (Blood, 5 min post-injection, [^18F]2 alone): 0.38 ± 0.18 | SUV, Average ± SD (Blood, 10 min post-injection, [^18F]2 + 20 µg of 2): 0.79 ± 0.12 | SUV, Average ± SD (Blood, 10 min post-injection, [^18F]2 alone): 0.34 ± 0.02 | SUV, Average ± SD (Blood, 120 min post-injection, [^18F]2 + 20 µg of 2): 0.43 ± 0.07 | SUV, Average ± SD (Blood, 120 min post-injection, [^18F]2 alone): 0.15 ± 0.07 | SUV, Average ± SD (Bone, 5 min post-injection, [^18F]2 + 20 µg of 2): 0.48 ± 0.02 | SUV, Average ± SD (Bone, 5 min post-injection, [^18F]2 alone): 0.30 ± 0.14 | SUV, Average ± SD (Bone, 10 min post-injection, [^18F]2 + 20 µg of 2): 0.50 ± 0.03 | SUV, Average ± SD (Bone, 10 min post-injection, [^18F]2 alone): 0.29 ± 0.04 | SUV, Average ± SD (Bone, 120 min post-injection, [^18F]2 + 20 µg of 2): 1.22 ± 0.31 | SUV, Average ± SD (Bone, 120 min post-injection, [^18F]2 alone): 1.08 ± 0.33 | SUV, Average ± SD (CN (caudate nucleus), 5 min post-injection, [^18F]2 + 20 µg of 2): 0.65 ± 0.04 | SUV, Average ± SD (CN (caudate nucleus), 5 min post-injection, [^18F]2 alone): 0.87 ± 0.48 | SUV, Average ± SD (CN (caudate nucleus), 10 min post-injection, [^18F]2 + 20 µg of 2): 0.45 ± 0.05 | SUV, Average ± SD (CN (caudate nucleus), 10 min post-injection, [^18F]2 alone): 0.34 ± 0.07 | SUV, Average ± SD (CN (caudate nucleus), 120 min post-injection, [^18F]2 + 20 µg of 2): 0.19 ± 0.03 | SUV, Average ± SD (CN (caudate nucleus), 120 min post-injection, [^18F]2 alone): 0.06 ± 0.02 | SUV, Average ± SD (Heart, 5 min post-injection, [^18F]2 + 20 µg of 2): 1.38 ± 0.11 | SUV, Average ± SD (Heart, 5 min post-injection, [^18F]2 alone): 0.69 ± 0.36 | SUV, Average ± SD (Heart, 10 min post-injection, [^18F]2 + 20 µg of 2): 1.14 ± 0.16 | SUV, Average ± SD (Heart, 10 min post-injection, [^18F]2 alone): 0.45 ± 0.02 | SUV, Average ± SD (Heart, 120 min post-injection, [^18F]2 + 20 µg of 2): 0.48 ± 0.12 | SUV, Average ± SD (Heart, 120 min post-injection, [^18F]2 alone): 0.16 ± 0.08 | SUV, Average ± SD (Left kidney, 5 min post-injection, [^18F]2 + 20 µg of 2): 2.47 ± 0.30 | SUV, Average ± SD (Left kidney, 5 min post-injection, [^18F]2 alone): 1.37 ± 0.69 | SUV, Average ± SD (Left kidney, 10 min post-injection, [^18F]2 + 20 µg of 2): 2.27 ± 0.32 | SUV, Average ± SD (Left kidney, 10 min post-injection, [^18F]2 alone): 1.01 ± 0.16 | SUV, Average ± SD (Left kidney, 120 min post-injection, [^18F]2 + 20 µg of 2): 2.18 ± 0.51 | SUV, Average ± SD (Left kidney, 120 min post-injection, [^18F]2 alone): 0.54 ± 0.06 | SUV, Average ± SD (Lung, 5 min post-injection, [^18F]2 + 20 µg of 2): 1.17 ± 0.15 | SUV, Average ± SD (Lung, 5 min post-injection, [^18F]2 alone): 0.65 ± 0.35 | SUV, Average ± SD (Lung, 10 min post-injection, [^18F]2 + 20 µg of 2): 1.08 ± 0.15 | SUV, Average ± SD (Lung, 10 min post-injection, [^18F]2 alone): 0.48 ± 0.03 | SUV, Average ± SD (Lung, 120 min post-injection, [^18F]2 + 20 µg of 2): 0.52 ± 0.09 | SUV, Average ± SD (Lung, 120 min post-injection, [^18F]2 alone): 0.18 ± 0.07 | SUV, Average ± SD (Muscle, 5 min post-injection, [^18F]2 + 20 µg of 2): 0.90 ± 0.17 | SUV, Average ± SD (Muscle, 5 min post-injection, [^18F]2 alone): 0.47 ± 0.23 | SUV, Average ± SD (Muscle, 10 min post-injection, [^18F]2 + 20 µg of 2): 0.72 ± 0.09 | SUV, Average ± SD (Muscle, 10 min post-injection, [^18F]2 alone): 0.43 ± 0.03 | SUV, Average ± SD (Muscle, 120 min post-injection, [^18F]2 + 20 µg of 2): 0.32 ± 0.06 | SUV, Average ± SD (Muscle, 120 min post-injection, [^18F]2 alone): 0.11 ± 0.04 | SUV, Average ± SD (Pancreas, 5 min post-injection, [^18F]2 + 20 µg of 2): 1.83 ± 0.16 | SUV, Average ± SD (Pancreas, 5 min post-injection, [^18F]2 alone): 1.27 ± 0.56 | SUV, Average ± SD (Pancreas, 10 min post-injection, [^18F]2 + 20 µg of 2): 1.53 ± 0.15 | SUV, Average ± SD (Pancreas, 10 min post-injection, [^18F]2 alone): 0.85 ± 0.23 | SUV, Average ± SD (Pancreas, 120 min post-injection, [^18F]2 + 20 µg of 2): 0.57 ± 0.15 | SUV, Average ± SD (Pancreas, 120 min post-injection, [^18F]2 alone): 0.22 ± 0.09 | SUV, Average ± SD (Right kidney, 5 min post-injection, [^18F]2 + 20 µg of 2): 2.46 ± 0.18 | SUV, Average ± SD (Right kidney, 5 min post-injection, [^18F]2 alone): 1.34 ± 0.69 | SUV, Average ± SD (Right kidney, 10 min post-injection, [^18F]2 + 20 µg of 2): 2.30 ± 0.35 | SUV, Average ± SD (Right kidney, 10 min post-injection, [^18F]2 alone): 0.97 ± 0.12 | SUV, Average ± SD (Right kidney, 120 min post-injection, [^18F]2 + 20 µg of 2): 2.30 ± 0.81 | SUV, Average ± SD (Right kidney, 120 min post-injection, [^18F]2 alone): 0.48 ± 0.15 | SUV, Average ± SD (Skin, 5 min post-injection, [^18F]2 + 20 µg of 2): 0.66 ± 0.16 | SUV, Average ± SD (Skin, 5 min post-injection, [^18F]2 alone): 0.46 ± 0.17 | SUV, Average ± SD (Skin, 10 min post-injection, [^18F]2 + 20 µg of 2): 0.66 ± 0.10 | SUV, Average ± SD (Skin, 10 min post-injection, [^18F]2 alone): 0.52 ± 0.16 | SUV, Average ± SD (Skin, 120 min post-injection, [^18F]2 + 20 µg of 2): 0.71 ± 0.66 | SUV, Average ± SD (Skin, 120 min post-injection, [^18F]2 alone): 0.10 ± 0.04 | SUV, Average ± SD (Spleen, 5 min post-injection, [^18F]2 + 20 µg of 2): 1.00 ± 0.05 | SUV, Average ± SD (Spleen, 5 min post-injection, [^18F]2 alone): 0.74 ± 0.27 | SUV, Average ± SD (Spleen, 10 min post-injection, [^18F]2 + 20 µg of 2): 1.14 ± 0.50 | SUV, Average ± SD (Spleen, 10 min post-injection, [^18F]2 alone): 0.55 ± 0.20 | SUV, Average ± SD (Spleen, 120 min post-injection, [^18F]2 + 20 µg of 2): 0.44 ± 0.11 | SUV, Average ± SD (Spleen, 120 min post-injection, [^18F]2 alone): 0.15 ± 0.07 | SUV, Average ± SD (Stomach, 5 min post-injection, [^18F]2 + 20 µg of 2): 0.86 ± 0.32 | SUV, Average ± SD (Stomach, 5 min post-injection, [^18F]2 alone): 0.80 ± 0.24 | SUV, Average ± SD (Stomach, 10 min post-injection, [^18F]2 + 20 µg of 2): 0.97 ± 0.63 | SUV, Average ± SD (Stomach, 10 min post-injection, [^18F]2 alone): 0.53 ± 0.09 | SUV, Average ± SD (Stomach, 120 min post-injection, [^18F]2 + 20 µg of 2): 1.28 ± 1.08 | SUV, Average ± SD (Stomach, 120 min post-injection, [^18F]2 alone): 0.68 ± 0.41 | SUV, Average ± SD (Urine, 5 min post-injection, [^18F]2 + 20 µg of 2): 0.20 ± 0.29 | SUV, Average ± SD (Urine, 5 min post-injection, [^18F]2 alone): 0.10 ± 0.10 | SUV, Average ± SD (Urine, 10 min post-injection, [^18F]2 + 20 µg of 2): 0.85 ± 0.79 | SUV, Average ± SD (Urine, 10 min post-injection, [^18F]2 alone): 1.78 ± 1.21 | SUV, Average ± SD (Urine, 120 min post-injection, [^18F]2 + 20 µg of 2): 3.20 ± 2.32 | SUV, Average ± SD (Urine, 120 min post-injection, [^18F]2 alone): 20.55 ± 8.76 | SUV, Average ± SD (liver, 5 min post-injection, [^18F]2 + 20 µg of 2): 8.37 ± 0.36 | SUV, Average ± SD (liver, 5 min post-injection, [^18F]2 alone): 11.85 ± 0.33 | SUV, Average ± SD (liver, 10 min post-injection, [^18F]2 + 20 µg of 2): 7.85 ± 0.41 | SUV, Average ± SD (liver, 10 min post-injection, [^18F]2 alone): 14.43 ± 1.48 | SUV, Average ± SD (liver, 120 min post-injection, [^18F]2 + 20 µg of 2): 4.00 ± 0.22 | SUV, Average ± SD (liver, 120 min post-injection, [^18F]2 alone): 3.08 ± 1.44

— article PMC11237012, “Synthesis and preliminary evaluation of novel PET probes for GSK-3 imaging” (Scientific Reports, 2024)
